Experimental data taken from ChEMBL document CHEMBL1201862, “PubChem BioAssay data set” (2004).
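All cell lines were grown in 96-well plates and treated with compound for 48 hours. GI50: concentration for 50% inhibition of growth.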 Activity calls are given as the source filed them. Rule as the data show it: active = GI50 up to about 1.1 µM and inactive = higher.

Tests used:
Assay in all cases: DTP human tumour cell line panel, 48 h
SW-620 = test system: SW-620
OVCAR-3 = test system: OVCAR-3
CCRF-CEM = test system: CCRF-CEM
RXF 393 = test system: RXF 393
RPMI-8226 = test system: RPMI-8226
UO-31 = test system: UO-31
HOP-62 = test system: HOP-62
UACC-257 = test system: UACC-257
OVCAR-5 = test system: OVCAR-5
MOLT-4 = test system: MOLT-4
NCI-H226 = test system: NCI-H226
SK-MEL-28 = test system: SK-MEL-28
HT-29 = test system: HT-29
A549 = test system: A549
786-0 = test system: 786-0
HOP-92 = test system: HOP-92
MDA-MB-435 = test system: MDA-MB-435
NCI-H460 = test system: NCI-H460
SR = test system: SR

Row | Structure (SMILES) | GI50 (SW-620) | GI50 (OVCAR-3) | GI50 (CCRF-CEM) | GI50 (RXF 393) | GI50 (RPMI-8226) | GI50 (UO-31) | GI50 (HOP-62) | GI50 (UACC-257) | GI50 (OVCAR-5) | GI50 (MOLT-4) | GI50 (NCI-H226) | GI50 (SK-MEL-28) | GI50 (HT-29) | GI50 (A549) | GI50 (786-0) | GI50 (HOP-92) | GI50 (MDA-MB-435) | GI50 (NCI-H460) | GI50 (SR)
1 | CCN1C(=O)C(=C/C=C/c2ccc(N(CC)CC)cc2)C(=O)N(CC)C1=S | > 100 µM (inactive) | 18 µM (inactive) | 32.4 µM (inactive) | > 100 µM (inactive) | > 100 µM (inactive) | > 100 µM (inactive) | 21.7 µM (inactive) | > 100 µM (inactive) | > 100 µM (inactive) | 33.9 µM (inactive) | 93.3 µM (inactive) | > 100 µM (inactive) | > 100 µM (inactive) | > 100 µM (inactive) | > 100 µM (inactive) | > 100 µM (inactive) | 86.9 µM (inactive) | > 100 µM (inactive) | –
2 | N#Cc1c(=O)c2ccccc2n2c1[nH]c1ccccc12 | 48.5 µM (inactive) | 38.6 µM (inactive) | 17.8 µM (inactive) | 4.44 µM (inactive) | 19.2 µM (inactive) | 33.7 µM (inactive) | > 100 µM (inactive) | 86.1 µM (inactive) | > 100 µM (inactive) | 12.4 µM (inactive) | 34.9 µM (inactive) | 52.2 µM (inactive) | 30.5 µM (inactive) | 58.1 µM (inactive) | 41 µM (inactive) | – | 54 µM (inactive) | 37 µM (inactive) | 0.618 µM (active)
3 | CC(=O)NCCCCNCCCNC(C)=O | > 100 µM (inactive) | – | > 100 µM (inactive) | > 100 µM (inactive) | > 100 µM (inactive) | > 100 µM (inactive) | – | > 100 µM (inactive) | > 100 µM (inactive) | > 100 µM (inactive) | > 100 µM (inactive) | > 100 µM (inactive) | > 100 µM (inactive) | > 100 µM (inactive) | > 100 µM (inactive) | > 100 µM (inactive) | > 100 µM (inactive) | > 100 µM (inactive) | –
4 | C=CCN1CCC(OC(=O)C(O)(/C=C\CC)C2CCCC2)CC1 (stereo not drawn) | – | > 100 µM (inactive) | > 100 µM (inactive) | > 100 µM (inactive) | > 100 µM (inactive) | > 100 µM (inactive) | > 100 µM (inactive) | 0.525 µM (active) | > 100 µM (inactive) | > 100 µM (inactive) | > 100 µM (inactive) | > 100 µM (inactive) | > 100 µM (inactive) | > 100 µM (inactive) | > 100 µM (inactive) | 38.2 µM (inactive) | > 100 µM (inactive) | – | –
5 | CCCCCCCCCCCCCCCCCCNc1nc(=O)n(C2CC(O)C(COP(=O)(O)OCC(COP(=O)(O)OC3C(CO)OC(n4ccc(N)nc4=O)C3O)OCCCCCCCCCCCCCCCCCC)O2)cc1F (stereo not drawn) | > 100 µM (inactive) | > 100 µM (inactive) | 0.402 µM (active) | 14.5 µM (inactive) | 11.8 µM (inactive) | 28.8 µM (inactive) | 16.5 µM (inactive) | 97.3 µM (inactive) | 67.1 µM (inactive) | 0.675 µM (active) | > 100 µM (inactive) | 69.7 µM (inactive) | 79.1 µM (inactive) | 14.5 µM (inactive) | 14.8 µM (inactive) | > 100 µM (inactive) | > 100 µM (inactive) | 9.2 µM (inactive) | –
6 | O=c1c(-c2ccccc2)c(SCCN2CCCC2)n(-c2ccccc2)c(=S)n1-c1ccccc1 | > 100 µM (inactive) | – | > 100 µM (inactive) | > 100 µM (inactive) | > 100 µM (inactive) | – | > 100 µM (inactive) | > 100 µM (inactive) | > 100 µM (inactive) | > 100 µM (inactive) | 83.2 µM (inactive) | > 100 µM (inactive) | > 100 µM (inactive) | > 100 µM (inactive) | > 100 µM (inactive) | 71.9 µM (inactive) | > 100 µM (inactive) | > 100 µM (inactive) | –
7 | NC(=O)C1=C(O)C[C@@H]2CC3Cc4cccc(O)c4C(=O)C3=C(O)[C@]2(O)C1=O (stereo partly drawn) | 3.57 µM (inactive) | 2.77 µM (inactive) | 0.873 µM (active) | 1.51 µM (inactive) | 0.755 µM (active) | 2.9 µM (inactive) | 3.31 µM (inactive) | 3.07 µM (inactive) | 0.449 µM (active) | 1.61 µM (inactive) | 2.23 µM (inactive) | 4 µM (inactive) | 0.339 µM (active) | 0.592 µM (active) | 3.24 µM (inactive) | 1.67 µM (inactive) | 10.1 µM (inactive) | 1.56 µM (inactive) | –
8 | COC(=O)[C@H](Cc1ccccc1)NP(=O)(OCCC#N)OCC1OC(n2cc(C)c(=O)[nH]c2=O)CC1N=[N+]=[N-] (stereo partly drawn) | > 100 µM (inactive) | – | > 100 µM (inactive) | > 100 µM (inactive) | > 100 µM (inactive) | > 100 µM (inactive) | > 100 µM (inactive) | > 100 µM (inactive) | > 100 µM (inactive) | > 100 µM (inactive) | > 100 µM (inactive) | – | > 100 µM (inactive) | > 100 µM (inactive) | > 100 µM (inactive) | > 100 µM (inactive) | > 100 µM (inactive) | > 100 µM (inactive) | –
9 | Nc1ccc(-c2nc3ccccc3s2)cc1I | > 92.7 µM (inactive) | 0.0614 µM (active) | 30.1 µM (inactive) | 29.7 µM (inactive) | > 84.1 µM (inactive) | 14.2 µM (inactive) | 37.3 µM (inactive) | > 100 µM (inactive) | 0.0817 µM (active) | 28.4 µM (inactive) | 0.221 µM (active) | > 100 µM (inactive) | 66.2 µM (inactive) | > 78 µM (inactive) | 43.9 µM (inactive) | – | 97.9 µM (inactive) | 38.5 µM (inactive) | 42 µM (inactive)
10 | O=c1c(Sc2c(SCSc3cnc4ccccc4c3Sc3c[nH]c4ccccc4c3=O)cnc3ccccc23)c[nH]c2ccccc12 | 44.7 µM (inactive) | > 100 µM (inactive) | 12.7 µM (inactive) | – | 14.5 µM (inactive) | > 100 µM (inactive) | 94.2 µM (inactive) | > 100 µM (inactive) | > 100 µM (inactive) | > 100 µM (inactive) | – | 22.9 µM (inactive) | > 100 µM (inactive) | > 10 µM (inactive) | > 100 µM (inactive) | 34 µM (inactive) | 31.1 µM (inactive) | > 100 µM (inactive) | 0.877 µM (active)
11 | C(=N\CCCN1CCN(CCC/N=C/c2cccc3ccccc23)CC1)/c1cccc2ccccc12 | 64.9 µM (inactive) | > 100 µM (inactive) | 52.7 µM (inactive) | 10.8 µM (inactive) | 36 µM (inactive) | 48.3 µM (inactive) | > 100 µM (inactive) | > 100 µM (inactive) | > 100 µM (inactive) | 39.4 µM (inactive) | 48.6 µM (inactive) | 56.4 µM (inactive) | 45.3 µM (inactive) | > 100 µM (inactive) | > 100 µM (inactive) | – | 14.5 µM (inactive) | > 100 µM (inactive) | 38 µM (inactive)
12 | C/C=C(\C)c1cc(=O)c2c(C)cc3c(c2o1)C(=O)c1c(O)c(C2CC(C)(N(C)C)C(OC(C)=O)C(C)O2)cc(C2CC(N(C)C)C(O)C(C)O2)c1C3=O (stereo not drawn) | 0.532 µM (active) | 2.13 µM (inactive) | 3.12 µM (inactive) | 0.505 µM (active) | 1.08 µM (active) | 0.948 µM (active) | 0.891 µM (active) | 1.49 µM (inactive) | 1.25 µM (inactive) | 0.372 µM (active) | 1.31 µM (inactive) | 1.91 µM (inactive) | 0.324 µM (active) | 0.41 µM (active) | 0.358 µM (active) | 1.45 µM (inactive) | 1.03 µM (active) | 0.00982 µM (active) | –
13 | CC(C)(C)OC(=O)CC(NC(=O)OC(C)(C)C)C(=O)Oc1ccc([N+](=O)[O-])cc1 (stereo not drawn) | > 100 µM (inactive) | > 100 µM (inactive) | > 100 µM (inactive) | > 100 µM (inactive) | > 100 µM (inactive) | > 100 µM (inactive) | > 100 µM (inactive) | > 100 µM (inactive) | > 100 µM (inactive) | > 100 µM (inactive) | > 100 µM (inactive) | > 100 µM (inactive) | > 100 µM (inactive) | > 100 µM (inactive) | > 100 µM (inactive) | > 100 µM (inactive) | > 100 µM (inactive) | > 100 µM (inactive) | –
14 | CN(C(=O)CC(=O)CP(=O)(c1ccccc1)c1ccccc1)c1ccccc1 | > 100 µM (inactive) | > 100 µM (inactive) | > 100 µM (inactive) | > 100 µM (inactive) | > 100 µM (inactive) | > 100 µM (inactive) | > 100 µM (inactive) | > 100 µM (inactive) | – | > 100 µM (inactive) | > 100 µM (inactive) | > 100 µM (inactive) | > 100 µM (inactive) | > 100 µM (inactive) | > 100 µM (inactive) | – | > 100 µM (inactive) | > 100 µM (inactive) | > 100 µM (inactive)
15 | O=C1NC(=S)N/C1=C\c1cc2c(=O)c3ccccc3sc2s1 | 57.8 µM (inactive) | 54.1 µM (inactive) | – | 68.1 µM (inactive) | 25.6 µM (inactive) | 58.5 µM (inactive) | 32.5 µM (inactive) | > 100 µM (inactive) | > 100 µM (inactive) | 23.5 µM (inactive) | > 100 µM (inactive) | 40.4 µM (inactive) | 55.1 µM (inactive) | – | 40.2 µM (inactive) | – | > 100 µM (inactive) | 64 µM (inactive) | 22.8 µM (inactive)
